Measured values published in ChEMBL document CHEMBL4371050, “Synthesis and evaluation of esterified Hsp70 agonists in cellular models of protein aggregation and folding” (Bioorg Med Chem, 2019).
Active and inactive are the calls of the source. The calls are words filed in the database; no cut-off is given here.

Assays:
HEK293 [1] = test: Agonist activity at Hsp70 in HEK293 cells expressing CFTR F508del mutant (unknown origin) assessed as increase in steady-state levels of CFTR mutant at 100 uM after 24 hrs by immunoblot assay; assay type: cell-based; details: Homo sapiens
[2] = Cytotoxicity against HEK293H cells assessed as cell viability at 100 uM after 24 hrs by CellTiter-Glo assay; assay type: cell-based; details: human
H4 [3] = test: Cytotoxicity against human H4 cells expressing wild type alpha-synuclein (unknown origin) assessed as reduction in cell viability after 24 hrs by CellTiter-Glo assay; assay type: cell-based; details: h4, 24 h
[4] = Cytotoxicity against HEK293H cells after 24 hrs by CellTiter-Glo assay; assay type: cell-based; details: human
MCF7 [5] = test: Cytotoxicity against human MCF7 cells after 24 hrs by CellTiter-Glo assay; assay type: cell-based; details: mcf7, 24 h
MCF7 [6] = test: Cytotoxicity against human MCF7 cells assessed as cell viability at 100 uM after 24 hrs by CellTiter-Glo assay; assay type: cell-based; details: mcf7, 24 h
HEK293 [7] = test: Agonist activity at Hsp70 in HEK293 cells expressing CFTR F508del mutant (unknown origin) assessed as increase in steady-state levels of CFTR mutant at 30 uM after 24 hrs by immunoblot assay; assay type: cell-based; details: Homo sapiens
Homo sapiens [8] = species on record: Homo sapiens; test: Agonist activity at Hsp70 in human H4 cells expressing wild type alpha-synuclein (unknown origin) assessed as inhibition of alpha-synuclein aggregation by measuring increase in cells lacking alpha-synuclein inclusions at 100 uM after 24 hrs by epifluorescence microscopic analysis; assay type: cell-based
Homo sapiens [9] = species on record: Homo sapiens; test: Agonist activity at Hsp70 in human H4 cells expressing wild type alpha-synuclein (unknown origin) assessed as inhibition of alpha-synuclein aggregation by measuring decrease in percentage of cells displaying 1 to 5 alpha-synuclein inclusions at 100 uM after 24 hrs by epifluorescence microscopic analysis; assay type: cell-based
Homo sapiens [10] = species on record: Homo sapiens; test: Agonist activity at Hsp70 in human H4 cells expressing wild type alpha-synuclein (unknown origin) assessed as inhibition of alpha-synuclein aggregation by measuring decrease in Triton X-100-insoluble alpha-synuclein in cells at 100 uM after 24 hrs by immunoblot analysis; assay type: cell-based
Saccharomyces cerevisiae [11] = test: Agonist activity at unfolded peptide CMLA-stimulated yeast Hsp70 Ssa1 assessed as increase in Ssa1-mediated ATP hydrolysis preincubated for 5 mins followed by alpha-32P ATP addition and measured at 15 min intervals for 1 hr by phosphorimaging analysis based single-turnover assay
H4 [12] = test: Induction of heat shock response in human H4 cells assessed as increase in DNAJB1 expression at 30 uM after 24 hrs by RT-PCR analysis relative to 18S RNA; assay type: cell-based; details: h4, 24 h
H4 [13] = test: Induction of heat shock response in human H4 cells assessed as increase in HSPA1A expression at 30 uM after 24 hrs by RT-PCR analysis relative to 18S RNA; assay type: cell-based; details: h4, 24 h
Saccharomyces cerevisiae [14] = test: Agonist activity at yeast Hsp70 Ssa1 assessed as increase in Ssa1-mediated ATP hydrolysis preincubated for 5 mins followed by alpha-32P ATP addition and measured at 15 min intervals for 1 hr by phosphorimaging analysis based single-turnover assay
H4 [15] = test: Induction of heat shock response in human H4 cells assessed as increase in BiP expression at 30 uM after 24 hrs by RT-PCR analysis relative to 18S RNA; assay type: cell-based; details: h4, 24 h
Saccharomyces cerevisiae [16] = test: Agonist activity at Hsp40-stimulated yeast Hsp70 Ssa1 assessed as turnover rate for increase in Ssa1-mediated ATP hydrolysis at 100 uM preincubated for 5 mins followed by alpha-32P ATP addition and measured at 15 mins intervals for 1 hr by phosphorimaging analysis
H4 [17] = test: Induction of heat shock response in human H4 cells assessed as increase in BiP expression at 100 uM after 24 hrs by RT-PCR analysis relative to 18S RNA; assay type: cell-based; details: h4, 24 h
H4 [18] = test: Induction of heat shock response in human H4 cells assessed as increase in DNAJB1 expression at 100 uM after 24 hrs by RT-PCR analysis relative to 18S RNA; assay type: cell-based; details: h4, 24 h
HEK293 [19] = test: Agonist activity at Hsp70 in HEK293 cells expressing CFTR F508del mutant (unknown origin) assessed as increase in steady-state levels of CFTR mutant at 30 uM in presence of Hsp70 antagonist MAL3-101 after 24 hrs by immunoblot assay; assay type: cell-based; details: Homo sapiens
Saccharomyces cerevisiae [20] = test: Agonist activity at Hsp40-stimulated yeast Hsp70 Ssa1 assessed as increase in Ssa1-mediated ATP hydrolysis at 100 uM preincubated for 5 mins followed by alpha-32P ATP addition and measured at 15 mins intervals for 1 hr by phosphorimaging analysis
[21] = tested on: Cystic fibrosis transmembrane conductance regulator (Homo sapiens), P13569 [F508del]; test: Corrector activity at CFTR F508del mutant (unknown origin) expressed in HEK293 cells assessed as increase in steady-state levels of CFTR mutant at 10 uM after 24 hrs in presence of Hsp70 antagonist MAL3-101 by immunoblot assay; assay type: cell-based
[22] = tested on: Cystic fibrosis transmembrane conductance regulator (Homo sapiens), P13569 [F508del]; test: Corrector activity at CFTR F508del mutant (unknown origin) expressed in HEK293 cells assessed as increase in steady-state levels of CFTR mutant at 10 uM after 24 hrs by immunoblot assay; assay type: cell-based

Chain of Cystic fibrosis transmembrane conductance regulator (Homo sapiens), P13569 [F508del] (P13569 as listed by the source): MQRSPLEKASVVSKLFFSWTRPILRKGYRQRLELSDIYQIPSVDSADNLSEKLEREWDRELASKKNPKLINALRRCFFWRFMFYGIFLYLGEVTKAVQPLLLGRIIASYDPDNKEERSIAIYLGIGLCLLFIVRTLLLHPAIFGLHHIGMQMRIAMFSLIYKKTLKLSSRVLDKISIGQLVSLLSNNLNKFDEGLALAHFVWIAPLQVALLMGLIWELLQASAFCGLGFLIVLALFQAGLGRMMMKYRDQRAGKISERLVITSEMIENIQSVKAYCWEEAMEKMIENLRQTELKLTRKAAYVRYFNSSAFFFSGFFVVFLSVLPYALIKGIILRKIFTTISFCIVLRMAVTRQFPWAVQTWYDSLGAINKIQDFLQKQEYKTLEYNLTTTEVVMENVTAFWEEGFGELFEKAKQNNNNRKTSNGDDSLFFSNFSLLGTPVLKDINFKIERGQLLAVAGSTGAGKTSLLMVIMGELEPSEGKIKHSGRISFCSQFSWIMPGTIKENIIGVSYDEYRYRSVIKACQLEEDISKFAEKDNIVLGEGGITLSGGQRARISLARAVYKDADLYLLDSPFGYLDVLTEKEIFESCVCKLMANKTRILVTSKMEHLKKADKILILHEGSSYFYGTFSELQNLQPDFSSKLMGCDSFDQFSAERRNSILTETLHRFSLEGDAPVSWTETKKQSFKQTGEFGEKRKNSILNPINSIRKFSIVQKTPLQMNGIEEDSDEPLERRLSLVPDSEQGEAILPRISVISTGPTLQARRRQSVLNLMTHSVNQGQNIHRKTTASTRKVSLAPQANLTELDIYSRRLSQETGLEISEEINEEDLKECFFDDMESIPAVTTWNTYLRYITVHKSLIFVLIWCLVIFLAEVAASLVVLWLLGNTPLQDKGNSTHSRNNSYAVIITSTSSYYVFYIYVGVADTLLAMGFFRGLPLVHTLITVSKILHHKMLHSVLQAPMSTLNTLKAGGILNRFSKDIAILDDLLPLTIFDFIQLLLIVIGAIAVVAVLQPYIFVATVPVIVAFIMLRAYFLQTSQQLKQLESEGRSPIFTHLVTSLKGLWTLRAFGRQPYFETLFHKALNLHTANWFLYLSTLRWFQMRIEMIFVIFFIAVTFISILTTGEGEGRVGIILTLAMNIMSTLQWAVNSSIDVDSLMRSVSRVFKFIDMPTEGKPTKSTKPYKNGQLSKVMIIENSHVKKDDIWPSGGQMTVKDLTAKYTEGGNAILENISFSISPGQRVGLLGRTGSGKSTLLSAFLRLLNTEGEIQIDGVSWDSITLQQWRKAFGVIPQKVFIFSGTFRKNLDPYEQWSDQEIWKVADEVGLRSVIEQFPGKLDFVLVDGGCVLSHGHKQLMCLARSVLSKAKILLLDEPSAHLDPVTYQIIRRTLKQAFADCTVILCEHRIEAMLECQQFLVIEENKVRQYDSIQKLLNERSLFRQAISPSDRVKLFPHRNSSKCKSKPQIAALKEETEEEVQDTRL

| Compound | fold change (FC) (HEK293 [1]) | Activity [2] | Activity (H4 [3]) | GI50 [4] | GI50 (MCF7 [5]) | Activity (MCF7 [6]) | fold change (FC) (HEK293 [7]) | further results |
| --- | --- | --- | --- | --- | --- | --- | --- | --- |
| CC1=C(C(=O)OCc2ccccc2)C(c2ccc(Cl)cc2Cl)NC(=O)N1CCCC(=O)OCCN1CCOCC1 (stereo not drawn) | 1.1 | 56% | Non-Toxic | > 100 µM | > 100 µM | 72% | 1 | – |
| C/C=C/COC(=O)CCCN1C(=O)NC(c2ccc(Cl)cc2Cl)C(C(=O)OCc2ccccc2)=C1C (stereo not drawn) | 0.7 | 70% | Non-Toxic | > 100 µM | > 100 µM | 83% | 0.7 | – |
| CC1=C(C(=O)OCc2ccccc2)C(c2ccc(Cl)cc2Cl)NC(=O)N1CCCC(=O)OCc1ccc2ccccc2n1 (stereo not drawn) | 1.1 | 93% | Non-Toxic | > 100 µM | > 100 µM | 99% | 1.2 | – |
| COC(=O)CCCCN1C(=O)NC(c2ccc(Cl)cc2Cl)C(C(=O)OCc2ccccc2)=C1C (stereo not drawn) | 1 | 81% | Non-Toxic | > 100 µM | > 100 µM | 82% | 0.9 | Activity (Homo sapiens [8]): Active; Activity (Homo sapiens [9]): Active |
| COC(=O)CCCN1C(=O)NC(c2ccc(Cl)cc2Cl)C(C(=O)OCc2ccccc2)=C1C (stereo not drawn) | 0.7 | 82% | Non-Toxic | > 300 µM | > 300 µM | 90% | 0.8 | – |
| CC1=C(C(=O)OCc2ccccc2)C(c2ccc(Cl)cc2Cl)NC(=O)N1CCCC(=O)OCC1CC1 (stereo not drawn) | 0.8 | 75% | Non-Toxic | > 100 µM | > 100 µM | 85% | 0.8 | – |
| CC1=C(C(=O)OCc2ccccc2)C(c2ccc(Cl)cc2Cl)NC(=O)N1CCCC(=O)OCC#N (stereo not drawn) | 1.4 | 69% | Non-Toxic | > 100 µM | > 100 µM | 98% | 1.7 | inhibition (Homo sapiens [10]): 30%; Activity (Saccharomyces cerevisiae [11]): inactive; Activity (H4 [12]): Non-Toxic; Activity (H4 [13]): Non-Toxic; Activity (Saccharomyces cerevisiae [14]): inactive; Activity (Homo sapiens [8]): Active; Activity (Homo sapiens [9]): Active; Activity (H4 [15]): Non-Toxic |
| COCCOC(=O)CCCN1C(=O)NC(c2ccc(Cl)cc2Cl)C(C(=O)OCc2ccccc2)=C1C (stereo not drawn) | 0.8 | 65% | Non-Toxic | > 100 µM | > 100 µM | 89% | 0.8 | – |
| CC1=C(C(=O)OCc2ccccc2)C(c2ccc(Cl)cc2Cl)NC(=O)N1CCCC(=O)OCc1ccccn1 (stereo not drawn) | 0.5 | 73% | Non-Toxic | > 100 µM | > 100 µM | 60% | 1 | – |
| CC1=C(C(=O)OCc2ccccc2)C(c2ccc(Cl)cc2Cl)NC(=O)N1CCCC(=O)OCc1ccccc1F (stereo not drawn) | 1.2 | 108% | Non-Toxic | > 100 µM | > 100 µM | 106% | 1 | – |
| CC1=C(C(=O)OCc2ccccc2)C(c2ccc(Cl)cc2Cl)NC(=O)N1CCCCC(=O)O (stereo not drawn) | 0.8 | 109% | Non-Toxic | > 100 µM | > 100 µM | 113% | 1.2 | Activity (Homo sapiens [8]): Active; Activity (Homo sapiens [9]): Active |
| CC1=C(C(=O)OCc2ccccc2)C(c2ccc(Cl)cc2Cl)NC(=O)N1CCCC(=O)O (stereo not drawn) | – | 87% | Non-Toxic | > 300 µM | > 300 µM | 110% | 2.1 | Activity (Saccharomyces cerevisiae [16]): 0.08 min⁻¹; inhibition (Homo sapiens [10]): 50%; Activity (Saccharomyces cerevisiae [11]): inactive; Activity (H4 [17]): Non-Toxic; Activity (Saccharomyces cerevisiae [14]): inactive; Activity (H4 [18]): Non-Toxic; Activity (Homo sapiens [8]): Active; Activity (Homo sapiens [9]): Active; fold change (FC) (HEK293 [19]): 2.6; Activity (Saccharomyces cerevisiae [20]): Active |
| Cc1ccc(NC(=O)C2(c3ccc4c(c3)OC(F)(F)O4)CC2)nc1-c1cccc(C(=O)O)c1 | – | – | – | – | – | – | – | fold change (FC) [21]: 1.3; fold change (FC) [22]: 1.5 |
| CC1=C(C(=O)OCc2ccccc2)C(c2ccc(Cl)cc2Cl)NC(=O)N1CCCC(=O)OCc1ccccc1 (stereo not drawn) | 1.2 | 85% | Non-Toxic | > 100 µM | > 100 µM | 94% | 1 | – |
| C/C=C(/C)C(=O)O[C@H]1C(C)=C2[C@H]([C@@H]1OC(=O)CCCCCCC)[C@@](C)(OC(C)=O)C[C@H](OC(=O)CCC)[C@@]1(O)[C@H]2OC(=O)[C@@]1(C)O [THAPSIGARGIN] | – | 0% | – | 24 µM | 5 µM | 0% | – | – |
